From patent US10640533B2, “Epoxyketone compounds for enzyme inhibition” (CENTRAX INTERNATIONAL, INC., priority 2014, dated 2020)
Values after ≈ are worked out from the molar mass of the structure shown. Read-outs that look alike come from different tables or passages of the source. Values belong to the molecule of their own block, whether it stands above or below them.

Experiments:
[1] = biological target: Constitutive 20S proteasome trypsin-like (T-L) activity (Homo sapiens (Human), UniProt P49720+Q99436); test: Constitutive 20S proteasome T-L activity inhibition, fluorogenic substrate Boc-Leu-Arg-Arg-AMC; type: biochemical
Protocol: (§1) Inhibition of the 20S proteasome can be determined by methods and assays known in the art, for example, as disclosed by Stein et al., Biochemistry (1996), 35, 3899-3908; by Lightcap et al., Clinical Chemistry, 2000, 46, 673-683; by Kisselev et al., Journal of Biological Chemistry. (2006), 281, 8582-8590 and in U.S. application Ser. No. 09/569,748. The chymotrypsin-like (CT-L), peptidylglutamyl peptide hydrolyzing (PGPH) and trypsin-like (T-L) activities of the 20S proteasome are measured with a fluorogenic substrate assay method using succinyl-Leu-Leu-Val-Tyr-AMC, Z-Leu-Leu-Glu-AMC and Boc-Leu-Arg-Arg-AMC, respectively, as the substrates in an assay buffer. The free fluorophore 7-Amino-4-methylcoumarin (AMC) after cleavage from the substrates is quantified using a fluorometer and activity of CT-L, PGPH and T-L of 20S proteasome is determined.
(§2) Inhibition of the chymotrypsin-like (CT-L), peptidylglutamyl peptide hydrolyzing activity (PGPH), and trypsin-like (T-L) activities of the 20S proteasome in enzymatic assays were determined using succinyl-Leu-Leu-Val-Tyr-AMC (10 μmol/L), Z-Leu-Leu-Glu-AMC (10 μmol/L) and Boc-Leu-Arg-Arg-AMC (50 μmol/L), respectively, as the substrates with purified human 20S proteasome at 2, 4 and 8 nmol/L, respectively, in the assay buffer containing 25 mM HEPES (pH7.5), 0.5 mM EDTA, 0.002% sodium dodecyl sulfate (SDS) and 0.05% NP-40. Stock solutions of the 20S proteasome inhibitors disclosed herein were prepared in dimethyl sulfoxide (DMSO) and the final DMSO concentration in the assay mixture was 1%. Reaction was conducted at room temperature for one hour. Proteasome activity was measured based on detection of the fluorophore 7-Amino-4-methylcoumarin (AMC) after cleavage from the substrates with a plate-based spectrofluorometer.

[2] = biological target: 20S Immunoproteasome trypsin-like (T-L) activity (Homo sapiens (Human), UniProt P40306+P49720); test: 20S immunoproteasome T-L activity inhibition, fluorogenic substrate Boc-Leu-Arg-Arg-AMC; type: biochemical; conditions: purified human 20S proteasome, room temperature, one hour
Protocol: as §1, §2

[3] = biological target: Constitutive 20S proteasome peptidylglutamyl peptide hydrolyzing (PGPH) activity (Homo sapiens (Human), UniProt P28072+Q99436); test: Constitutive 20S proteasome PGPH activity inhibition, fluorogenic substrate Z-Leu-Leu-Glu-AMC; type: biochemical; conditions: purified human 20S proteasome, room temperature, one hour
Protocol: as §1, §2

[4] = biological target: 20S Immunoproteasome chymotrypsin-like (CT-L) activity (Homo sapiens (Human), UniProt P20618+P28062); test: 20S immunoproteasome CT-L activity inhibition, fluorogenic substrate succinyl-Leu-Leu-Val-Tyr-AMC; type: biochemical; conditions: purified human 20S proteasome, room temperature, one hour
Protocol: as §1, §2

[5] = biological target: Constitutive 20S proteasome chymotrypsin-like (CT-L) activity (Homo sapiens (Human), UniProt P20618+P28074); test: Constitutive 20S proteasome CT-L activity inhibition, fluorogenic substrate succinyl-Leu-Leu-Val-Tyr-AMC; type: biochemical
Protocol: as §1, §2

[6] = biological target: 20S Immunoproteasome peptidylglutamyl peptide hydrolyzing (PGPH) activity (Homo sapiens (Human), UniProt P28065+P40306); test: 20S immunoproteasome PGPH activity inhibition, fluorogenic substrate Z-Leu-Leu-Glu-AMC; type: biochemical; conditions: purified human 20S proteasome, room temperature, one hour
Protocol: as §1, §2

[7] = Aqueous solubility of the compounds; type: physicochemical; conditions: 50 mM citrate buffer, pH 4, aqueous buffer, thermodynamic from solid, 50 mM citrate pH4.0, 25° C.
Protocol: To determine the solubility of the compounds, 1-5 mg of a compound was weighed into a vial. 1 mL of aqueous buffer (50 mM citrate at pH4.0) was added. The vial was shaken at 25° C. for 24 hours and then centrifuged for 10 min at 10000 rpm. The supernatant was filtered through a 0.45 μm membrane filter and analyzed for the concentration of the compound. In certain embodiments, the aqueous solubility of the compounds is described herein in Table 1.

[8] = purified human 20S proteasome, room temperature, one hour, read-out: Proteasome inhibition IC50 (nM) Constitutive 20S proteasome T-L
[9] = form of 20S proteasome not stated, 'below about'
[10] = purified human 20S proteasome, room temperature, one hour, read-out: Proteasome inhibition IC50 (nM) Constitutive 20S proteasome CT-L
[11] = form of 20S proteasome not stated, 'below about', read-out: concentration showing inhibition of T-L activity of the 20S proteasome

Structure (SMILES): COC[C@H](NC(=O)c1cc(CN2CCOCC2)on1)C(=O)N[C@@H](Cc1ccncc1)C(=O)N[C@@H](CC(C)C)C(=O)[C@@]1(C)CO1 [CX13-500]
IC50 [1, 8]: > 20000 nM | IC50 [2]: > 20000 nM | IC50 [3]: > 20000 nM | IC50 [4]: 170 nM | IC50 [5, 10]: 121 nM | IC50 [6]: > 20000 nM | solubility at 24 h [7]: > 2350 µg/mL

Structure (SMILES): CC(C)C[C@H](NC(=O)[C@H](Cc1ccccc1)NC(=O)[C@H](CCc1ccccc1)NC(=O)c1cc(CN2CCOCC2)on1)C(=O)[C@@]1(C)CO1 [CX13-600]
IC50 [1, 8]: > 20000 nM | IC50 [2]: 19900 nM | IC50 [3]: > 20000 nM | IC50 [4]: 7.41 nM | IC50 [5, 9]: < 5 nM | IC50 [5, 10]: 4.28 nM | IC50 [6]: > 20000 nM | solubility at 24 h [7]: 20 µg/mL (≈ 29.7 µM)

Structure (SMILES): Cc1cc(C(=O)N[C@@H](CCc2ccccc2)C(=O)N[C@@H](Cc2ccncc2)C(=O)N[C@@H](CC(C)C)C(=O)[C@@]2(C)CO2)no1 [CX13-135]
IC50 [1, 8]: 13400 nM | IC50 [2]: 6450 nM | IC50 [3]: > 20000 nM | IC50 [4]: 28.1 nM | IC50 [5, 9]: < 10 nM | IC50 [5, 10]: 6.56 nM | IC50 [6]: > 20000 nM | solubility at 24 h [7]: 1160 µg/mL (≈ 1970 µM)

Structure (SMILES): COC[C@H](NC(=O)c1cnc(C)s1)C(=O)N[C@@H](COC)C(=O)N[C@@H](Cc1ccccc1)C(=O)[C@@]1(C)CO1 [CX13-709]
solubility at 24 h [7]: 570 µg/mL (≈ 1070 µM)

Structure (SMILES): COC[C@H](NC(=O)c1cc(C)on1)C(=O)N[C@@H](Cc1ccncc1)C(=O)N[C@@H](CC(C)C)C(=O)[C@@]1(C)CO1 [CX13-501]
IC50 [1, 8]: > 20000 nM | IC50 [2]: > 20000 nM | IC50 [3]: > 20000 nM | IC50 [4]: 392 nM | IC50 [5, 10]: 113 nM | IC50 [6]: > 20000 nM | solubility at 24 h [7]: 4480 µg/mL (≈ 8460 µM)

Structure (SMILES): COC[C@H](NC(=O)[C@H](CCc1ccccc1)NC(=O)c1cnc(C)s1)C(=O)N[C@@H](Cc1ccccc1)C(=O)[C@@]1(C)CO1 [CX13-705]
IC50 [1, 8]: 15800 nM | IC50 [2]: > 20000 nM | IC50 [3]: > 20000 nM | IC50 [4]: 15.3 nM | IC50 [5, 9]: < 10 nM | IC50 [5, 10]: 9.75 nM | IC50 [6]: > 20000 nM | solubility at 24 h [7]: 20 µg/mL (≈ 33.7 µM)

Structure (SMILES): C[C@]1(C(=O)[C@H](Cc2ccccc2)NC(=O)[C@H](Cc2cscn2)NC(=O)[C@H](CCc2ccccc2)NC(=O)c2cc(CN3CCOCC3)on2)CO1 [CX13-605]
IC50 [1, 8]: > 20000 nM | IC50 [2]: > 20000 nM | IC50 [3]: > 20000 nM | IC50 [4]: 6.81 nM | IC50 [5, 9]: < 10 nM | IC50 [5, 10]: 12.2 nM | IC50 [6]: > 20000 nM | solubility at 24 h [7]: 120 µg/mL (≈ 168 µM)

Structure (SMILES): Cc1ncc(C(=O)N[C@@H](CCc2ccccc2)C(=O)N[C@@H](Cc2ccncc2)C(=O)N[C@@H](CC(C)C)C(=O)[C@@]2(C)CO2)s1 [CX13-137]
IC50 [1, 8]: 11900 nM | IC50 [2]: 5860 nM | IC50 [3]: > 20000 nM | IC50 [4]: 60.4 nM | IC50 [5, 9]: < 50 nM | IC50 [5, 10]: 13.5 nM | IC50 [6]: > 20000 nM | solubility at 24 h [7]: 910 µg/mL (≈ 1500 µM)

Structure (SMILES): COC[C@H](NC(=O)[C@H](CCc1ccccc1)NC(=O)c1cc(CN2CCOCC2)on1)C(=O)N[C@@H](CC(C)C)C(=O)[C@@]1(C)CO1 [CX13-601]
IC50 [1, 8]: > 20000 nM | IC50 [2]: > 20000 nM | IC50 [3]: > 20000 nM | IC50 [4]: 31.7 nM | IC50 [5, 9]: < 50 nM | IC50 [5, 10]: 16 nM | IC50 [6]: > 20000 nM | solubility at 24 h [7]: 480 µg/mL (≈ 765 µM)

The remaining lines, values ahead:

IC50 [1, 8]: > 20000 nM | IC50 [2]: > 20000 nM | IC50 [3]: > 20000 nM | IC50 [4]: 1.34 nM | IC50 [5, 9]: < 5 nM | IC50 [5, 10]: 0.97 nM | IC50 [6]: > 20000 nM | solubility at 24 h [7]: 21 µg/mL (≈ 31.2 µM)
Structure (SMILES): CC(C)C[C@H](NC(=O)[C@H](CCc1ccccc1)NC(=O)c1cc(CN2CCOCC2)on1)C(=O)N[C@@H](Cc1ccccc1)C(=O)[C@@]1(C)CO1 [CX13-105]

IC50 [1, 8]: > 20000 nM | IC50 [2]: > 20000 nM | IC50 [3]: > 20000 nM | IC50 [4]: > 500 nM | IC50 [5, 10]: > 500 nM | IC50 [6]: > 20000 nM | solubility at 24 h [7]: 3490 µg/mL (≈ 5740 µM)
Structure (SMILES): CC(C)C[C@H](NC(=O)[C@H](CCc1ccccc1)NC(=O)CN1CCOCC1)C(=O)N[C@@H](Cc1ccncc1)C(=O)[C@@]1(C)CO1 [CX13-109]

IC50 [1, 8]: 9950 nM | IC50 [2]: 6220 nM | IC50 [3]: > 20000 nM | IC50 [4]: 5.1 nM | IC50 [5, 9]: < 5 nM | IC50 [5, 10]: 4.74 nM | IC50 [6]: > 20000 nM | solubility at 24 h [7]: 83 µg/mL (≈ 137 µM)
Structure (SMILES): CC(C)C[C@H](NC(=O)[C@H](CCc1ccccc1)NC(=O)CN1CCOCC1)C(=O)N[C@@H](Cc1ccccc1)C(=O)[C@@]1(C)CO1 [CX13-107]

IC50 [1, 11]: < 500 nM | IC50 [1, 8]: 297 nM | IC50 [2]: 186 nM | IC50 [3]: > 20000 nM | IC50 [4]: 59.3 nM | IC50 [5, 9]: < 10 nM | IC50 [5, 10]: 6.1 nM | IC50 [6]: > 20000 nM | solubility at 24 h [7]: 3730 µg/mL (≈ 5730 µM)
Structure (SMILES): COC[C@H](NC(=O)[C@H](CCc1ccccc1)NC(=O)Cc1ccc(CN2CCOCC2)cc1)C(=O)N[C@@H](CC(C)C)C(=O)[C@@]1(C)CO1 [CX13-606]

IC50 [1, 8]: 3600 nM | IC50 [2]: 1650 nM | IC50 [3]: > 20000 nM | IC50 [4]: 248 nM | IC50 [5, 9]: < 100 nM | IC50 [5, 10]: 62.4 nM | IC50 [6]: > 20000 nM | solubility at 24 h [7]: 1360 µg/mL (≈ 2600 µM)
Structure (SMILES): CC(=O)N[C@@H](CCc1ccccc1)C(=O)N[C@@H](Cc1ccncc1)C(=O)N[C@@H](CC(C)C)C(=O)[C@@]1(C)CO1 [CX13-130]

IC50 [1, 11]: < 500 nM | IC50 [1, 8]: 443 nM | IC50 [2]: 455 nM | IC50 [3]: > 20000 nM | IC50 [4]: 4.65 nM | IC50 [5, 9]: < 5 nM | IC50 [5, 10]: 3.58 nM | IC50 [6]: > 20000 nM | solubility at 24 h [7]: 6360 µg/mL (≈ 9110 µM)
Structure (SMILES): CC(C)C[C@H](NC(=O)[C@H](Cc1ccncc1)NC(=O)[C@H](CCc1ccccc1)NC(=O)Cc1ccc(CN2CCOCC2)cc1)C(=O)[C@@]1(C)CO1 [CX13-133]

IC50 [1, 8]: > 20000 nM | IC50 [2]: > 20000 nM | IC50 [3]: > 20000 nM | IC50 [4]: 33.6 nM | IC50 [5, 9]: < 50 nM | IC50 [5, 10]: 33.3 nM | IC50 [6]: > 20000 nM | solubility at 24 h [7]: 1440 µg/mL (≈ 2130 µM)
Structure (SMILES): CC(C)C[C@H](NC(=O)[C@H](CCc1ccccc1)NC(=O)c1cc(CN2CCOCC2)on1)C(=O)N[C@@H](Cc1ccncc1)C(=O)[C@@]1(C)CO1 [CX13-104]
